# From PMC4467398, “Preclinical antitumor activity of ST7612AA1: a new oral thiol-based histone deacetylase (HDAC) inhibitor” (Oncotarget, 2014)
# Test system: DOHH2 and TMD8 DLBCL cells
# Assay: Gene expression profiling (HumanHT-12 v4 BeadChip, limma), ST7612AA1 300 nM 8 hrs vs DMSO
# Format: cell-based, human
# Conditions: 300 nM 8 hrs vs DMSO
compound,measurement,value
CC(=O)SCCCCC[C@H](NC(=O)[C@H]1CCC(=O)N1)C(=O)Nc1ccccc1 [ST7612AA1],log ratio TCEA2 (probe ILMN_1665526),8.50E-01
same,log ratio TCEAL3 (probe ILMN_1734190),7.88E-01
same,log ratio TCERG1 (ILMN_1706839),-8.49E-01
same,log ratio TCFL5 (ILMN_1814247),6.07E-01
same,log ratio TCTN1 (probe ILMN_1685124),7.81E-01
same,log ratio TESK2 (probe ILMN_1654370),8.37E-01
same,log ratio TFB2M (ILMN_2067709),-7.83E-01
same,log ratio THOC6 (ILMN_1679880),-5.93E-01
same,log ratio THUMPD2 (ILMN_1787511),-6.05E-01
same,log ratio TIMM10 (ILMN_1765332),-1.04E+00
same,log ratio TLK1 (ILMN_1811029),-9.26E-01
same,log ratio TMBIM4 (ILMN_1664750),-9.76E-01
same,log ratio TMED1 (ILMN_1693045),-9.13E-01
same,log ratio TMEM14A (probe ILMN_1785191),7.29E-01
same,log ratio TMEM49 (probe ILMN_1692754),8.49E-01
same,log ratio TMEM154 (probe ILMN_2088124),6.89E-01
same,log ratio TMEM179B (ILMN_3241979),5.96E-01
same,log ratio TMEM184B (ILMN_1747460),6.31E-01
same,log ratio TMEM199 (ILMN_1748481),-6.12E-01
same,log ratio TMOD2 (probe ILMN_3250273),7.57E-01
same,log ratio TMPO (ILMN_1768816),-8.22E-01
same,log ratio TNFRSF17 (ILMN_1768016),-1.76E+00
same,log ratio TOB1 (ILMN_1672004),6.63E-01
same,log ratio TPRG1L (probe ILMN_1727479),7.86E-01
same,log ratio TPST1 (probe ILMN_1651950),7.51E-01
same,log ratio TPST2 (probe ILMN_1695432),7.18E-01
same,log ratio TRAFD1 (probe ILMN_1758250),8.52E-01
same,log ratio TRIM4 (ILMN_2323385),6.43E-01
same,log ratio TRIM6 (ILMN_1656910),5.98E-01
same,log ratio TRIM8 (ILMN_1746704),-8.66E-01
same,log ratio TRIM21 (ILMN_1678054),-8.09E-01
same,log ratio TRIM22 (ILMN_1779252),-8.73E-01
same,log ratio TRIP6 (ILMN_1713990),-1.16E+00
same,log ratio TRMT1 (ILMN_1812940),-8.45E-01
same,log ratio TRMT11 (ILMN_1805481),-8.20E-01
same,log ratio TSEN2 (ILMN_1746393),-8.42E-01
same,log ratio TSPAN4 (ILMN_2340027),5.99E-01
same,log ratio TTC27 (ILMN_1757730),-1.28E+00
same,log ratio TTLL12 (ILMN_1663113),-6.01E-01
same,log ratio TUBG2 (ILMN_1701052),6.65E-01
same,log ratio TXNDC14 (ILMN_1799367),-8.38E-01
same,log ratio TYMS (ILMN_1806040),-1.10E+00
same,log ratio TYSND1 (ILMN_1775677),-1.15E+00
same,log ratio TYW3 (ILMN_1726842),-9.88E-01
same,log ratio U2AF2 (ILMN_1768930),-1.25E+00
same,log ratio UBE2A (probe ILMN_2307455),7.18E-01
same,log ratio UBE2C (ILMN_2265654),-7.99E-01
same,log ratio UBE2D4 (ILMN_1707084),-8.99E-01
same,log ratio UBE2H (ILMN_1757644),6.49E-01
same,log ratio UBE2J1 (ILMN_1713759),-1.05E+00
same,log ratio UBTD1 (probe ILMN_1794914),8.56E-01
same,log ratio UBXN8 (ILMN_1731891),-8.44E-01
same,log ratio UCK2 (ILMN_1768662),-9.43E-01
same,log ratio UCP2 (probe ILMN_1685625),7.30E-01
same,log ratio UNC45A (ILMN_1726434),6.72E-01
same,log ratio UNC84A (probe ILMN_1772316),7.21E-01
same,log ratio UNG (ILMN_1683120),-1.39E+00
same,log ratio UPLP (probe ILMN_3236765),7.46E-01
same,log ratio UPP1 (ILMN_1798256),6.07E-01
same,log ratio URB2 (ILMN_3249406),-5.93E-01
same,log ratio USP13 (ILMN_3251526),-5.97E-01
same,log ratio VASH2 (probe ILMN_1692698),7.31E-01
same,log ratio VPS8 (probe ILMN_1678268),7.47E-01
same,log ratio VRK2 (ILMN_1750088),-9.87E-01
same,log ratio VRK3 (ILMN_1771697),6.75E-01
same,log ratio WARS2 (ILMN_2323979),-5.97E-01
same,log ratio WDR12 (ILMN_1770692),-7.92E-01
same,log ratio WDR12 (ILMN_2045729),-8.64E-01
same,log ratio WDR19 (probe ILMN_1655117),7.77E-01
same,log ratio WIBG (ILMN_1751431),-1.01E+00
same,log ratio WIPI2 (ILMN_2321292),6.22E-01
same,log ratio WNK1 (ILMN_1876924),6.14E-01
same,log ratio YARS2 (ILMN_1782635),-8.22E-01
same,log ratio YDJC (ILMN_1812580),-8.57E-01
same,log ratio YPEL3 (ILMN_1791147),6.17E-01
